# Experimental data: US10260079B2, “Method for producing ergothioneine by using soybean cake powder as nitrogen source in a seed medium” (TIANJIN INSTITUTE OF INDUSTRIAL BIOTECHNOLOGY, CHINESE …, priority 2014, dated 2019)
# Where “and” joins values, the source holds several entries; their conditions need not be identical. Identical values can stand only once. Like-named read-outs stand apart in the source and are kept apart here.
# Tested on: Pleurotus ostreatus mycelia CGMCC No. 6232
# Test: Shake-flask fermentation, total content of ergothioneine in the fermentation broth by HPLC
# Type: cell-based
# [1] = Pleurotus ostreatus, CGMCC6232, 360 h, read-out: content of ergothioneine improved compared with control group
smiles,measurement,setting,value
Cl.N [NH4Cl],Content of ergothioneine in fermentation broth,NH4Cl 0.5 g/L added in fermentation medium,127 ± 1.87 mg/L
same,Content of ergothioneine in fermentation broth,NH4Cl 1 g/L added in fermentation medium,133.7 ± 1.04 mg/L
same,Content of ergothioneine in fermentation broth,NH4Cl 2 g/L added in fermentation medium,139.2 ± 1.55 mg/L
same,content of ergothioneine improved compared with control group,NH4Cl 4 g/L,24.4%
same,Content of ergothioneine in fermentation broth,NH4Cl 4 g/L added in fermentation medium,155.4 mg/L and 155.4 ± 2.68 mg/L
same,Content of ergothioneine in fermentation broth,NH4Cl 8 g/L added in fermentation medium,141.8 ± 0.68 mg/L
same,Content of ergothioneine in fermentation broth,NH4Cl 12 g/L added in fermentation medium,128.6 ± 3.53 mg/L
[Cl-].[Na+] [NaCl],content of ergothioneine improved compared with control group,,6.63%
"Cc1ncc(C[n+]2csc(CCO)c2C)c(N)n1 [VB1, vitamin B1]",Content of ergothioneine in fermentation broth,VB1 0.01 g/L added in fermentation medium,122.7 ± 1.02 mg/L
same,Content of ergothioneine in fermentation broth,VB1 0.05 g/L added in fermentation medium,128.8 ± 2.41 mg/L
same,content of ergothioneine improved compared with control group,VB1 0.1 g/L,11.2%
same,Content of ergothioneine in fermentation broth,VB1 0.1 g/L added in fermentation medium,132.2 mg/L and 132.2 ± 1.39 mg/L
same,Content of ergothioneine in fermentation broth,VB1 0.2 g/L added in fermentation medium,129.6 ± 2.67 mg/L
same,Content of ergothioneine in fermentation broth,VB1 0.4 g/L added in fermentation medium,127 ± 1.86 mg/L
same,Content of ergothioneine in fermentation broth,VB1 0.8 g/L added in fermentation medium,123.3 ± 3.03 mg/L
N=C(N)NCCC[C@H](N)C(=O)O [arginine],activation at 2000 µg/mL,[1],12.7%
N[C@@H](CC(=O)O)C(=O)O [aspartic acid],activation at 5000 µg/mL,"Pleurotus ostreatus, CGMCC6232, 360 h, aspartic acid 5 g/L, read-out: content of ergothioneine improved compared with control group",14.1%
same,Content of ergothioneine in fermentation broth,aspartic acid 0.05 g/L added in fermentation medium,124.1 ± 3.07 mg/L
same,Content of ergothioneine in fermentation broth,aspartic acid 0.5 g/L added in fermentation medium,128 ± 2.51 mg/L
same,Content of ergothioneine in fermentation broth,aspartic acid 1 g/L added in fermentation medium,130.1 ± 4.28 mg/L
same,Content of ergothioneine in fermentation broth,aspartic acid 5 g/L added in fermentation medium,135.9 mg/L and 135.9 ± 3.64 mg/L
same,Content of ergothioneine in fermentation broth,aspartic acid 7 g/L added in fermentation medium,127.9 ± 2.59 mg/L
same,Content of ergothioneine in fermentation broth,aspartic acid 9 g/L added in fermentation medium,123.8 ± 2.88 mg/L
C[N+](C)(C)CC(=O)O [betaine],activation at 150000 µM,"Pleurotus ostreatus, CGMCC6232, 360 h, betaine 150 mmol/L, read-out: content of ergothioneine improved compared with control group",22%
same,Content of ergothioneine in fermentation broth,betaine 50 mmol/L added in fermentation medium,125.3 ± 2.67 mg/L
same,Content of ergothioneine in fermentation broth,betaine 100 mmol/L added in fermentation medium,130.1 ± 2.14 mg/L
same,Content of ergothioneine in fermentation broth,betaine 150 mmol/L added in fermentation medium,146.6 mg/L and 146.6 ± 2.64 mg/L
same,Content of ergothioneine in fermentation broth,betaine 200 mmol/L added in fermentation medium,129.9 ± 3.34 mg/L
same,Content of ergothioneine in fermentation broth,betaine 250 mmol/L added in fermentation medium,124.8 ± 1.38 mg/L
O=C(O)CC(O)(CC(=O)O)C(=O)O [citric acid],activation at 400 µg/mL,"Pleurotus ostreatus, CGMCC6232, 360 h, citric acid 0.4 g/L, read-out: content of ergothioneine improved compared with control group",10.4%
same,Content of ergothioneine in fermentation broth,citric acid 0.01 g/L added in fermentation medium,126.9 ± 2.75 mg/L
same,Content of ergothioneine in fermentation broth,citric acid 0.05 g/L added in fermentation medium,130.2 ± 1.31 mg/L
same,Content of ergothioneine in fermentation broth,citric acid 0.2 g/L added in fermentation medium,135.4 ± 0.83 mg/L
same,Content of ergothioneine in fermentation broth,citric acid 0.4 g/L added in fermentation medium,138.3 mg/L and 138.3 ± 2.49 mg/L
same,Content of ergothioneine in fermentation broth,citric acid 0.8 g/L added in fermentation medium,128.4 ± 1.16 mg/L
N[C@@H](CS)C(=O)O [cysteine],activation at 15000 µM,"Pleurotus ostreatus, CGMCC6232, 360 h, cysteine 15 mmol/L added on the 6th day, read-out: content of ergothioneine improved compared with control group",56%
same,activation at 15000 µM,"Pleurotus ostreatus, CGMCC6232, 360 h, cysteine 15 mmol/L, read-out: content of ergothioneine improved compared with control group",46%
same,Content of ergothioneine in fermentation broth,cysteine 2 mmol/L added in fermentation medium,124.8 ± 2.03 mg/L
same,Content of ergothioneine in fermentation broth,cysteine 9 mmol/L added in fermentation medium,140.4 ± 1.83 mg/L
same,Content of ergothioneine in fermentation broth,cysteine 15 mmol/L added in fermentation medium,175.5 mg/L and 175.5 ± 1.36 mg/L
same,Content of ergothioneine in fermentation broth,"cysteine 15 mmol/L, timing for adding 0 d (before the fermentation)",170.3 ± 1.92 mg/L
same,Content of ergothioneine in fermentation broth,"cysteine 15 mmol/L, timing for adding 2 d",177.4 ± 2.33 mg/L
same,Content of ergothioneine in fermentation broth,"cysteine 15 mmol/L, timing for adding 4 d",186.1 ± 1.67 mg/L
same,Content of ergothioneine in fermentation broth,"cysteine 15 mmol/L, timing for adding 6 d",193.8 mg/L and 193.8 ± 4.16 mg/L
same,Content of ergothioneine in fermentation broth,"cysteine 15 mmol/L, timing for adding 8 d",172.1 ± 1.73 mg/L
same,Content of ergothioneine in fermentation broth,"cysteine 15 mmol/L, timing for adding 10 d",156.5 ± 2.52 mg/L
same,Content of ergothioneine in fermentation broth,cysteine 25 mmol/L added in fermentation medium,164.6 ± 4.31 mg/L
same,Content of ergothioneine in fermentation broth,cysteine 35 mmol/L added in fermentation medium,148.1 ± 2.74 mg/L
same,Content of ergothioneine in fermentation broth,cysteine 45 mmol/L added in fermentation medium,126.1 ± 2.99 mg/L
Nc1nc2ncc(CNc3ccc(C(=O)N[C@@H](CCC(=O)O)C(=O)O)cc3)nc2c(=O)[nH]1 [folic acid],activation at 640 µg/mL,"Pleurotus ostreatus, CGMCC6232, 360 h, folic acid 0.64 g/L, read-out: content of ergothioneine improved compared with control group",25%
same,Content of ergothioneine in fermentation broth,folic acid 0.08 g/L added in fermentation medium,121.4 ± 1.36 mg/L
same,Content of ergothioneine in fermentation broth,folic acid 0.16 g/L added in fermentation medium,127.1 ± 2.24 mg/L
same,Content of ergothioneine in fermentation broth,folic acid 0.32 g/L added in fermentation medium,136.9 ± 4.14 mg/L
same,Content of ergothioneine in fermentation broth,folic acid 0.64 g/L added in fermentation medium,148.6 mg/L and 148.6 ± 1.54 mg/L
same,Content of ergothioneine in fermentation broth,folic acid 1.28 g/L added in fermentation medium,143.8 ± 1.77 mg/L
same,Content of ergothioneine in fermentation broth,folic acid 2.56 g/L added in fermentation medium,122.2 ± 3.03 mg/L
N[C@@H](CCC(=O)O)C(=O)O [glutamic acid],activation at 10 µM,"Pleurotus ostreatus, CGMCC6232, 360 h, glutamic acid 10 μmol/L, read-out: content of ergothioneine improved compared with control group",9.1%
same,Content of ergothioneine in fermentation broth,glutamic acid 1 μmol/L added in fermentation medium,123.6 ± 0.92 mg/L
same,Content of ergothioneine in fermentation broth,glutamic acid 5 μmol/L added in fermentation medium,128.8 ± 1.19 mg/L
same,Content of ergothioneine in fermentation broth,glutamic acid 10 μmol/L added in fermentation medium,131.2 mg/L and 131.2 ± 2.62 mg/L
same,Content of ergothioneine in fermentation broth,glutamic acid 50 μmol/L added in fermentation medium,124 ± 1.72 mg/L
same,Content of ergothioneine in fermentation broth,glutamic acid 100 μmol/L added in fermentation medium,122.7 ± 1.63 mg/L
OCC(O)CO [glycerol],activation at 75000 µg/mL,"Pleurotus ostreatus, CGMCC6232, 360 h, glycerol 75 g/L vs 50 g/L, casein peptone 50 g/L, read-out: content of ergothioneine improved compared with control group",8.5%
same,Content of ergothioneine in fermentation broth,"glycerol 65 g/L, casein peptone 50 g/L in fermentation medium (control glycerol 50 g/L)",162.4 ± 2.67 mg/L
same,Content of ergothioneine in fermentation broth,"glycerol 75 g/L, casein peptone 50 g/L in fermentation medium (control glycerol 50 g/L)",170.2 mg/L and 170.2 ± 3.49 mg/L
same,Content of ergothioneine in fermentation broth,"glycerol 85 g/L, casein peptone 50 g/L in fermentation medium (control glycerol 50 g/L)",164.8 ± 3.41 mg/L
same,Content of ergothioneine in fermentation broth,"glycerol 95 g/L, casein peptone 50 g/L in fermentation medium (control glycerol 50 g/L)",160.1 ± 1.15 mg/L
N[C@@H](Cc1c[nH]cn1)C(=O)O [histidine],activation at 1000 µM,"Pleurotus ostreatus, CGMCC6232, 360 h, histidine 1 mmol/L, read-out: content of ergothioneine improved compared with control group",7.7%
O=C(O)CCCc1c[nH]c2ccccc12 [indolebutyric acid],Content of ergothioneine in fermentation broth,indolebutyric acid 0.1 mg/L added in fermentation medium,130.9 ± 2.23 mg/L
same,Content of ergothioneine in fermentation broth,indolebutyric acid 0.5 mg/L added in fermentation medium,138.4 ± 1.29 mg/L
same,content of ergothioneine improved compared with control group,indolebutyric acid 1 mg/L,9.33%
same,Content of ergothioneine in fermentation broth,indolebutyric acid 1 mg/L added in fermentation medium,140.6 mg/L and 140.6 ± 3.09 mg/L
same,Content of ergothioneine in fermentation broth,indolebutyric acid 2 mg/L added in fermentation medium,137.7 ± 1.84 mg/L
same,Content of ergothioneine in fermentation broth,indolebutyric acid 4 mg/L added in fermentation medium,132.8 ± 0.93 mg/L
CC(C)C[C@H](N)C(=O)O [leucine],activation at 100 µg/mL,"Pleurotus ostreatus, CGMCC6232, 360 h, leucine 0.1 g/L, read-out: content of ergothioneine improved compared with control group",11.9%
same,Content of ergothioneine in fermentation broth,leucine 0.02 g/L added in fermentation medium,127 ± 1.23 mg/L
same,Content of ergothioneine in fermentation broth,leucine 0.05 g/L added in fermentation medium,129.4 ± 2.17 mg/L
same,Content of ergothioneine in fermentation broth,leucine 0.1 g/L added in fermentation medium,133.3 mg/L and 133.3 ± 2.5 mg/L
same,Content of ergothioneine in fermentation broth,leucine 0.25 g/L added in fermentation medium,130.8 ± 2.46 mg/L
same,Content of ergothioneine in fermentation broth,leucine 0.5 g/L added in fermentation medium,125.5 ± 1.36 mg/L
NCCCC[C@H](N)C(=O)O [lysine],Content of ergothioneine in fermentation broth,,124.8 ± 0.72 mg/L and 125.6 ± 2.03 mg/L and 128.9 ± 2.12 mg/L and 133.7 ± 1.51 mg/L and 135.1 ± 0.66 mg/L and 126.3 ± 2.67 mg/L
same,activation at 5000 µg/mL,[1],13.4%
CSCC[C@H](N)C(=O)O [methionine],activation at 15000 µM,"Pleurotus ostreatus, CGMCC6232, 360 h, methionine 15 mmol/L added on the 4th day, read-out: content of ergothioneine improved compared with control group",63.1%
same,activation at 15000 µM,"Pleurotus ostreatus, CGMCC6232, 360 h, methionine 15 mmol/L, read-out: content of ergothioneine improved compared with control group",49.4%
same,Content of ergothioneine in fermentation broth,methionine 3 mmol/L added in fermentation medium,127.3 ± 3.47 mg/L
same,Content of ergothioneine in fermentation broth,methionine 9 mmol/L added in fermentation medium,154.8 ± 3.31 mg/L
same,Content of ergothioneine in fermentation broth,methionine 15 mmol/L added in fermentation medium,179.6 mg/L and 179.6 ± 4.17 mg/L
same,Content of ergothioneine in fermentation broth,"methionine 15 mmol/L, timing for adding 0 d (before the fermentation)",179.3 ± 4.23 mg/L
same,Content of ergothioneine in fermentation broth,"methionine 15 mmol/L, timing for adding 2 d",190.5 ± 2.84 mg/L
same,Content of ergothioneine in fermentation broth,"methionine 15 mmol/L, timing for adding 4 d",202.6 mg/L and 202.6 ± 5.01 mg/L
same,Content of ergothioneine in fermentation broth,"methionine 15 mmol/L, timing for adding 6 d",174.9 ± 3.73 mg/L
same,Content of ergothioneine in fermentation broth,"methionine 15 mmol/L, timing for adding 8 d",160.3 ± 5.29 mg/L
same,Content of ergothioneine in fermentation broth,"methionine 15 mmol/L, timing for adding 10 d",149.3 ± 3.27 mg/L
same,Content of ergothioneine in fermentation broth,methionine 25 mmol/L added in fermentation medium,168.5 ± 4.53 mg/L
same,Content of ergothioneine in fermentation broth,methionine 35 mmol/L added in fermentation medium,153.7 ± 3.2 mg/L
same,Content of ergothioneine in fermentation broth,methionine 45 mmol/L added in fermentation medium,126.9 ± 2.81 mg/L
